Article PMC11802874, “The hypolipidemic effect of MI-883, the combined CAR agonist/ PXR antagonist, in diet-induced hypercholesterolemia model” (Nature Communications, 2025)
Several values for one entry are separate records, joined by “and”; a condition that tells them apart may be missing. Equal entries are not always repeated.

Legend:
Human recombinant CYP2B6 = target: T1, Human recombinant CYP2B6 (Homo sapiens, UniProt P20813); assay: CYP450-Glo CYP2B6 enzymatic activity assay; format: biochemical; conditions: for Inhibition assays, CYP2B6 activity (replicates): log[Agonist]
T1 construct: purchased Promega; host or cells: baculovirus-infected insect cells
T1 sequence (P20813 1-491): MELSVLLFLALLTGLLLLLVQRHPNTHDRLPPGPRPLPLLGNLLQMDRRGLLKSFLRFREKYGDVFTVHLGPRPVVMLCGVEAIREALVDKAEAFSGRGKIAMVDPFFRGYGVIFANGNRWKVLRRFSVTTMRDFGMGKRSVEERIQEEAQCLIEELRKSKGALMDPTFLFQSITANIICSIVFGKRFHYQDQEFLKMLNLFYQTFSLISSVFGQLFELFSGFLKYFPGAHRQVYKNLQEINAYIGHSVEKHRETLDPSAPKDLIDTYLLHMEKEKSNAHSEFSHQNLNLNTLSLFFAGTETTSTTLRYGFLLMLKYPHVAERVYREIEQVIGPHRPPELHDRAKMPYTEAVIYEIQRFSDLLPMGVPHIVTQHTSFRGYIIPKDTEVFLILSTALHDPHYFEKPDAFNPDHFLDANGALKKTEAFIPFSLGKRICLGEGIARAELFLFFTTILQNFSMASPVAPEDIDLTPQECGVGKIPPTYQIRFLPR
Text: Data are presented as means±S.D. from three independent measurements.

[1] = Stability in human plasma; format: in vitro ADME; conditions: plasma (legend: pooled human serum), read-out: Stability in human plasma, t1/2
Procedure: Plasma protein binding, and stability in human and mouse plasma have been tested as previously described. Supplementary Figure 1. […] Four time points over 120 minutes have been analyzed. […] Compounds were tested in triplicate with or without NADPH.

PPARγ = PPARγ (Homo sapiens, UniProt P37231); assay: Luciferase reporter gene assay PPARγ, HepG2
PPARγ, sequence (P37231 238-503 limits assumed): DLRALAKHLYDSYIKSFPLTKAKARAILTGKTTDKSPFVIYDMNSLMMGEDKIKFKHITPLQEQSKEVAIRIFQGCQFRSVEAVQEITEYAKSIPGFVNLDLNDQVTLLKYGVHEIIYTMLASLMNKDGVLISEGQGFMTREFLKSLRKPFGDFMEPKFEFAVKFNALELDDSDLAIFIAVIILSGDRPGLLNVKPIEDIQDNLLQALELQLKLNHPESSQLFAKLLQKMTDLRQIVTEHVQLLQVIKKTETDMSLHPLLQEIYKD
Text: The luciferase reporter gene assays for FXR, LXRα, LXRβ, THα, GRα, PPARα, PPARδ/β, PPARγ, AhR, VD, ERα, ERβ and mouse Car are described in our recent paper[19]
Gal4-LBD constructs of tested nuclear receptors have been used together with pGL4.31[luc2P/GAL4UAS/Hygro] luciferase reporter construct and pRL-TK Renilla expression vector (both from Promega, Hercules, USA) in HepG2 cells transfected with Lipofectamine 2000 or 3000 reagents. For GRα and FXR receptors, full-length expression vectors have been used with pGRE-luc or pFXRE-luc luciferase constructs. For the aryl hydrocarbon receptor (AhR), p1A1-luc construct was used with only pRL-TK vector for transfection normalization. A dual reporter assay (Promega, Hercules, USA) was used to analyze both firefly and Renilla luciferase activities.
Gal4-LBD constructs of tested nuclear receptors have been used together with pGL5-luc luciferase reporter construct and pRL-TK Renilla expression vector in HepG2 cells transfected with Lipofectamine 2000 or 3000 reagents. For GRα and FXR receptors, full-length expression vectors have been used with pGRE-luc or pFXRE-luc luciferase constructs. For the aryl hydrocarbon receptor (AhR), p1A1-luc construct was used with only pRL-TK vector for transfection normalization. […] Bars represent means±S.D. (n=3).

SMILES: NC(=O)c1cc(Cn2cc(-c3c(-c4ccc(Cl)cc4)nc4cc(F)ccn34)nn2)ccc1Cl [MI-883, 2-chloro-5-((4-(2-(4-chlorophenyl)-7-fluoroimidazo[1,2-a]pyridin-3-yl)-1H-1,2,3-triazol-1-yl)methyl)benzamide]
- inhibition of CYP2B6 activity (Human recombinant CYP2B6): does not suppress
- Inhibition assays, CYP2B6 activity (replicates) (Human recombinant CYP2B6; M 0): 129 and 112 and 119
- Inhibition assays, CYP2B6 activity (replicates) (Human recombinant CYP2B6; M 0.5): 112
- Inhibition assays, CYP2B6 activity (replicates) (Human recombinant CYP2B6; M 0.5, listed as MI 883): 104 and 118
- Inhibition assays, CYP2B6 activity (replicates) (Human recombinant CYP2B6; M 1): 114 (2×) and 110
- Inhibition assays, CYP2B6 activity (replicates) (Human recombinant CYP2B6; M -0.5): 102 and 120 and 140
- Inhibition assays, CYP2B6 activity (replicates) (Human recombinant CYP2B6; M -1): 98
- Inhibition assays, CYP2B6 activity (replicates) (Human recombinant CYP2B6; M -1, listed as MI 883): 104 and 111
- Inhibition assays, CYP2B6 activity (replicates) (Human recombinant CYP2B6; M -2): 100
- Inhibition assays, CYP2B6 activity (replicates) (Human recombinant CYP2B6; M -2.5): 100
- Inhibition assays, CYP2B6 activity (replicates) (Human recombinant CYP2B6; M -3): 100
- Inhibition assays, CYP2B6 activity (replicates) (Human recombinant CYP2B6; M -3.5): 100
- Inhibition assays, CYP2B6 activity (replicates) (Human recombinant CYP2B6; M -4): 100
- Inhibition assays, CYP2B6 activity (replicates) (Human recombinant CYP2B6; M -4.5): 100
- half-life at 1 µM [1]: > 2 h
- NRs assays: PPARy (relative to ctrl, replicates) (PPARγ): 0.61 and 0.89 and 1.05
